Laboratory results published in patent US8658604B2, “Template-fixed beta-hairpin peptidomimetics with protease inhibitory activity” (Polyphor Ltd, priority 2005, dated 2014).
pIC50: −log10 of the molar value. Read-outs that look alike come from different tables or passages of the source. Where a SMILES comes first, the peptide text is derived from it.

How the values were obtained:
[1] = test system: HELA cells (Acc57); assay: Cytotoxicity assay (MTT reduction), HELA cells; format: cell-based; details: Hela cells
Method in brief: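 HeLa cells were grown for 24 h, then exposed to peptides at 12.5, 25 and 50 μM in triplicate for 48 h at 37 °C. MTT reduction was read at 595 nm and growth % calculated relative to time-zero wells. LC50 interpolated by linear trend at −50% growth, GI50 at 50%.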

[2] = format: in vitro ADME; details: 10 µM
Method: 405 μl of plasma/albumin solution were placed in a polypropylene (PP) tube and spiked with 45 μl of compound from a […] solution B, derived from 135 μl of PBS and 15 μl of 1 mM peptide in PBS, pH 7.4. 150 μl aliquots were transferred into individual wells of the 10 kDa filter plate (Millipore MAPPB 1010 Biomax membrane). For “0 minutes controls”: 270 μl of PBS were placed in a PP tube and 30 μl of stock solution B was added and vortexed. 150 μl of control solution were placed into one well of the filter plate and served as “filtered control”.
Further 150 μl of control solution were placed directly into a receiver well (reserved for filtrate) and served as “not-filtered control”. The entire plate including evaporation lid was incubated for 60 min at 37° C. Plasma samples (rat plasma: Harlan Sera lab UK, human plasma: Blutspendezentrum Zürich) were centrifuged at least for 2 h at 4300 rpm (3500 g) and 15° C. in order to yield 100 filtrate. For “serum albumin”-samples (freshly prepared human albumin: Sigma A-4327, rat albumin: Sigma A-6272, all at 40 mg/ml concentration in PBS) approximately 1 hour of centrifugation was sufficient. The filtrates in the receiver PP plate were analysed by LC/MS as follower follows: Column: Jupiter C18 (Phenomenex), mobile phases: (A) 0.1% formic acid in water and (B) acetonitrile, gradient: 5%-100% (B) in 2 minutes, electrospray ionization, MRM detection (triple quadrupole). The peak areas were determined and triplicate values were averaged. The binding was expressed in percent of the (filtered and not-filtered time point 0 min) control 1 and 2 by: 100−(100×T60/T0). The average from these values was then calculated.

[3] = test system: human red blood cells (hRBC); assay: Hemolysis
[4] = biological target: Trypsin, from human pancreas (Homo sapiens, UniProt P07477); assay: Enzymatic assay, trypsin; details: at 100 μM
[5] = biological target: T1, Chymase, from human skin (Homo sapiens, UniProt P23946); assay: Enzymatic assay, chymase
T1 sequence (P23946 22-247): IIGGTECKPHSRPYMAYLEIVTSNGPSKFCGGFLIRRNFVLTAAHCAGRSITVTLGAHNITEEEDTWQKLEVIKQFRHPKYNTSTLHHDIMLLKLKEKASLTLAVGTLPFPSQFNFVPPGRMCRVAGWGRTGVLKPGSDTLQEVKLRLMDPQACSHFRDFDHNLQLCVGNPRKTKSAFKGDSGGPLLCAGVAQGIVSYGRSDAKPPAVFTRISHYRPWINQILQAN

[6] = biological target: T2, Elastase from human neutrophils (Homo sapiens, UniProt P08246); assay: Enzymatic assay, elastase
T2 sequence (P08246 30-267): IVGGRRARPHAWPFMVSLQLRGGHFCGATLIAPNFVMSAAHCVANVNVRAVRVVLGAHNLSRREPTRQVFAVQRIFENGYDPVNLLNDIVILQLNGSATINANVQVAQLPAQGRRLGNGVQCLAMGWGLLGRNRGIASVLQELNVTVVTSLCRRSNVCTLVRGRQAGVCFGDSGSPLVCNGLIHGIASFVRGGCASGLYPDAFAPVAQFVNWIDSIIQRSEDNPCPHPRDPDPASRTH

[7] = biological target: Thrombin, from Human Plasma (Homo sapiens, UniProt P00734); assay: Enzymatic assay, thrombin
[8] = test system: Tryptase, from human lung; assay: Enzymatic assay, tryptase; details: at 100 μM
[9] = biological target: Urokinase from human urine (Homo sapiens, UniProt P00749); assay: Enzymatic assay, urokinase
[10] = biological target: T3, CathepsinG, from human neutrophils (Homo sapiens, UniProt P08311); assay: Enzymatic assay, cathepsin G
T3 sequence (P08311 21-244): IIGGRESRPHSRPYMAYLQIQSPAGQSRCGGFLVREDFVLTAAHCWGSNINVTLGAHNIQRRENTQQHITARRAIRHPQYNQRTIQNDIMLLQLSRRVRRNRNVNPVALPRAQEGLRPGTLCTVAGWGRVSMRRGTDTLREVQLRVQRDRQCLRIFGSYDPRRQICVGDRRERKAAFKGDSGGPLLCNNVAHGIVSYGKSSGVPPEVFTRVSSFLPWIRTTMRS

[11] = biological target: Chymotrypsin, from human pancreas (Homo sapiens, UniProt P17538); assay: Enzymatic assay, chymotrypsin
Chymotrypsin, from human pancreas, sequence (P17538 19-263): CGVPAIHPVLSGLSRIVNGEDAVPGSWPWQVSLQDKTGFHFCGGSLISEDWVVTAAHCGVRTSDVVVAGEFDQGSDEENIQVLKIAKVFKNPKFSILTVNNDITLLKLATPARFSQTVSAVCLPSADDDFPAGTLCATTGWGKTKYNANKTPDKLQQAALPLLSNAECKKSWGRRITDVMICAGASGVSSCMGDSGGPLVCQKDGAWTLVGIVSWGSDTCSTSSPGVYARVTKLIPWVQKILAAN

[12] = biological target: Coagulation Factor Xa, from uman plasma (Homo sapiens, UniProt P00742); assay: Enzymatic assay, coagulation factor Xa
Coagulation Factor Xa, from uman plasma, sequence (P00742 235-488 limits assumed): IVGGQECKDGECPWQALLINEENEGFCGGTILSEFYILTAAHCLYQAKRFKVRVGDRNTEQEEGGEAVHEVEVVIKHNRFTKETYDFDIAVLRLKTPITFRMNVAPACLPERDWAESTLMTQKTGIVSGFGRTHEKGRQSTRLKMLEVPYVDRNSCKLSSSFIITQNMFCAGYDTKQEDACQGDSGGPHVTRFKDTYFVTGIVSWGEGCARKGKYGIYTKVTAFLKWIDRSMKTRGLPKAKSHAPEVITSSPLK
Coagulation Factor Xa, from uman plasma, sequence (P00742 41-179 limits assumed): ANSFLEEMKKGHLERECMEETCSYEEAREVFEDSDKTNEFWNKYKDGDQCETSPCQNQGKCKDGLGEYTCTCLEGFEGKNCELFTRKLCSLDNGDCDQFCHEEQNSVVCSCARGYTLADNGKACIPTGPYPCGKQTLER

Structure (SMILES)	Cytotoxicity LC50/GI50 Hela cells [1] [µM]	Stability human Plasma t1/2 [2] [h]	Stability rat Plasma t1/2 [2] [h]	Hemolysis at 100 μM % [3] [%]	Trypsin at 100 μM % [4] [%]	Chymase at 100 μM % [5] [%]	pIC50 ([6]; Elastase IC50)	Thrombin at 100 μM % [7] [%]	Tryptase at 100 μM % [8] [%]	Urokinase at 100 μM % [9] [%]	pIC50 ([10]; Cathepsin G IC50)	Chymotrypsin at 100 μM % [11] [%]	FXa at 100 μM % [12] [%]	pIC50 ([6]; read-out: Elastase IC50)	pIC50 ([10]; read-out: Cathepsin G IC50)	pIC50 [11]	Tryptase At 100 μM % [8] [%]	Cathepsin G at 100 μM % ([10]; at 100 μM) [at 100%]
CCCC[C@@H]1NC(=O)[C@H]([C@@H](C)O)NC(=O)[C@@H]2CSSC[C@H](NC(=O)[C@H]([C@@H](C)CC)NC(=O)[C@@H]3CCCN3C(=O)[C@@H]3CCCN3C(=O)[C@H](CC(=O)O)NC(=O)[C@H](CO)NC1=O)C(=O)N[C@@H](Cc1ccc(O)cc1)C(=O)N1CCC[C@@H]1C(=O)N1CCC[C@H]1C(=O)N[C@@H](Cc1ccccc1)C(=O)N2 [Ex. 23] (HELM PEPTIDE1{F.C.T.[Nle].S.D.P.P.I.C.Y.[dP].P}$PEPTIDE1,PEPTIDE1,2:R3-10:R3|PEPTIDE1,PEPTIDE1,1:R1-13:R2$$$V2.0)	51	5	5	0	90	60	< 4.00	0	29	9	7.42	4	11	–	–	–	–	–
CCCC[C@@H]1NC(=O)[C@H]([C@@H](C)O)NC(=O)[C@@H]2CSSC[C@H](NC(=O)[C@H]([C@@H](C)CC)NC(=O)[C@@H]3CCCN3C(=O)[C@@H]3CCCN3C(=O)[C@H](CC(=O)O)NC(=O)[C@H](CO)NC1=O)C(=O)N[C@@H](Cc1ccc(O)cc1)C(=O)N1CCC[C@@H]1C(=O)N1CCC[C@H]1C(=O)N[C@@H](Cc1ccccc1)C(=O)N2 [Ex. 60] (HELM PEPTIDE1{F.C.T.[Nle].S.D.P.P.I.C.Y.[dP].P}$PEPTIDE1,PEPTIDE1,2:R3-10:R3|PEPTIDE1,PEPTIDE1,1:R1-13:R2$$$V2.0)	51	–	–	0	90	60	–	0	29.4	9	–	4	11	< 4.00	7.42	–	–	–
CCCC[C@@H]1NC(=O)[C@@H]2CCCN2C(=O)[C@@H]2CCCN2C(=O)[C@H](CC(=O)O)NC(=O)[C@H](CO)NC(=O)[C@H](CCCCN)NC(=O)[C@H]([C@@H](C)O)NC(=O)[C@@H]2CSSC[C@H](NC1=O)C(=O)N[C@@H](Cc1ccc(O)cc1)C(=O)N1CCC[C@@H]1C(=O)N1CCC[C@H]1C(=O)N[C@@H](C1CCCCC1)C(=O)N2 [Ex. 63] (HELM PEPTIDE1{[O=C([C@@H](N[*:1])C1CCCCC1)[*:2]].C.T.K.S.D.P.P.[Nle].C.Y.[dP].P}$PEPTIDE1,PEPTIDE1,2:R3-10:R3|PEPTIDE1,PEPTIDE1,1:R1-13:R2$$$V2.0)	87	–	–	0	96	7	< 4.00	1	50	0	7.39	11	0	–	–	–	–	–
CC[C@H](C)[C@@H]1NC(=O)[C@@H]2CCCN2C(=O)[C@@H]2CCCN2C(=O)[C@H](CC(=O)O)NC(=O)[C@H](CO)NC(=O)[C@H](CCCCN)NC(=O)[C@H]([C@@H](C)O)NC(=O)[C@@H]2CSSC[C@H](NC1=O)C(=O)N[C@@H](CO)C(=O)N1CCC[C@@H]1C(=O)N[C@@H](CCC(=O)O)C(=O)N[C@@H](Cc1ccccc1)C(=O)N2 [Ex. 64] (HELM PEPTIDE1{F.C.T.K.S.D.P.P.I.C.S.[dP].E}$PEPTIDE1,PEPTIDE1,2:R3-10:R3|PEPTIDE1,PEPTIDE1,1:R1-13:R2$$$V2.0)	59	–	–	0	87	0	< 4.00	2.3	0	3	7.35	0	0	–	–	–	–	–
CCCC[C@@H]1NC(=O)[C@H](CC(=O)O)NC(=O)[C@H]2CCCN2C(=O)[C@H](Cc2ccc(O)cc2)NC(=O)[C@@H]2CSSC[C@H](NC1=O)C(=O)N[C@@H]([C@@H](C)O)C(=O)N[C@@H](C)C(=O)N[C@@H](CO)C(=O)N[C@@H]([C@@H](C)CC)C(=O)N1CCC[C@H]1C(=O)N1CCC[C@H]1C(=O)N[C@@H](CCC(N)=O)C(=O)N2 [Ex. 121] (HELM PEPTIDE1{[Nle].C.T.A.S.I.P.P.Q.C.Y.[dP].D}$PEPTIDE1,PEPTIDE1,2:R3-10:R3|PEPTIDE1,PEPTIDE1,1:R1-13:R2$$$V2.0)	49	5	5	–	12.8	1.2	7.74	0	4.6	5.7	4.95	–	5.6	–	–	4.56	–	–
C[C@@H]1NC(=O)[C@H]([C@@H](C)O)NC(=O)[C@@H]2CSSC[C@H](NC(=O)[C@H](CCC(N)=O)NC(=O)[C@@H]3CCCN3C(=O)[C@@H]3CCCN3C(=O)[C@H](CC3CCCCC3)NC(=O)[C@H](CO)NC1=O)C(=O)N[C@@H](CCC(N)=O)C(=O)N1CCC[C@@H]1C(=O)N1CCC[C@H]1C(=O)N[C@@H](CCc1ccccc1)C(=O)N2 [Ex. 158] (HELM PEPTIDE1{[O=C([C@H](CCc1ccccc1)N[*:1])[*:2]].C.T.A.S.[Cha].P.P.Q.C.Q.[dP].P}$PEPTIDE1,PEPTIDE1,2:R3-10:R3|PEPTIDE1,PEPTIDE1,1:R1-13:R2$$$V2.0)	–	5	5	–	8	0	8.15	2	–	10	–	93	1	–	–	–	13	55
